Laboratory results: patent US5034528A, “Compositions for the control of hyperlipidemia” (North Carolina Central University, priority 1988, dated 1991)
Read-outs that look alike come from different tables or passages of the source.

Legend:
[1] = system: cholesterol content of serum lipoprotein (VLDL, LDL, HDL); test: Cholesterol content of serum lipoprotein of rats treated orally for 14 days; type: in vivo; details: Sprague-Dawley rats, orally 14 days, 20 mg/kg/day; control 1% CMC = 100
Procedure: The cholesterol content of serum lipoprotein of
Sprague-Dawley Rats treated orally for 14 days at 20 mg/kg/day

[2] = system: serum cholesterol and triglyceride levels; test: Serum testing of normal rats: serum cholesterol and triglyceride levels, oral; type: in vivo; details: Sprague-Dawley male rats, 20 mg/kg/day orally
Text: Test solution of Compounds A, F, J, M, N and O were suspended in an aqueous solution of 1% CMC, homogenized and administered orally to six Sprague-Dawley male rats, which each weighted approximately 350 grams. Administration of the compounds was by an intubation needle. The rats were each fed with 20 milligrams of Compounds A, F, J, M, N and O per kilogram of body weight per day for 14 days. Similarly, six Sprague-Dawley male rats of approximately the same weight (that used for testing F weighed approximately 160 grams) were fed similar volumes of the same aqueous 1% CMC solution without the active agents, also orally, administered by intubation needle. In addition, as a control, a similar group of six male Sprague-Dawley rats were untreated.
On Days 7 and 14, blood was obtained from each of the rats of the three groups by tail vein bleeding. The blood obtained was separated by centrifugation for three minutes. Serum cholesterol and triglyceride levels were determined in accordance with the procedure of Example 6.

[3] = system: serum cholesterol and serum triglyceride levels; test: Testing of hyperlipidemic mice: serum cholesterol and serum triglyceride levels on atherogenic diet; type: in vivo; details: hyperlipidemic CF1 male mice, 20 mg/kg/d ip, Day 12; diet-hyperlipidemic = 100
Procedure: A group of six CF1 male mice (about 25 g) were placed on a commercial diet (U.S. Biochemical Corporation BAsal Atherogenic Test Diet) which produced a "hyperlipidemic" state. That is, the average serum cholesterol level in the group of treated mice was raised from 122 to 375 mg percent and triglyceride levels were raised from 137 to 367 mg/dL.

[4] = in vivo; details: mouse, ip
[5] = system: serum cholesterol and serum triglyceride levels; test: Testing of normal mice: serum cholesterol and serum triglyceride levels, compounds 20 mg/kg/d ip for 16 days; type: in vivo; details: CF1 male mice; for response vs control in vivo at 20 mg/kg/day: Mus musculus
Procedure: The following compounds were tested for their hypolipidemic activity in CF1 mice.
Compounds A-V as defined above, were suspended in an aqueous 1 percent carboxymethylcellulose (CMC) solution and homogenized. Each of the so prepared compounds were administered to a group of six CF1 male mice, each weighing approximately 25 grams, intra-peritioneally for 16 days. Each of these compounds were provided in a dosage of 20 mg/kg/d ip. On Days 9 and 16 blood was obtained by tail vein bleeding. The blood serum so obtained was separated by centrifugation for three minutes. Serum cholesterol levels were determined by a modification of the Liebermann-Burchard reaction (Ness, Clin. Chim. Acta., Vol. 10, 229 [1964]). Serum triglyceride levels were determined on Day 16 by use of the Fisher, Hycel Triglyceride Test Kit.
In addition to the above-described treated mice, an untreated control group of six mice were similarly tested on Days 9 and 16 to determine their serum cholesterol and trigylceride blood levels. Based on the results obtained for the untreated control group, the percent control, based on serum cholesterol and serum triglyceride levels of the treated mice compared to the untreated mice, was obtained. Table 1 reports this percent control, including standard deviation, indicating the level of confidence of these numbers.

[6] = system: mice; test: LD50 in mice as single injection IP
[7] = 216 h, Day 9, ± standard deviation, read-out: Serum Cholesterol, Day 9 (percent control)
[8] = 384 h, Day 16, ± standard deviation, read-out: Serum Cholesterol, Day 16 (percent control)
[9] = 384 h, Day 16, ± standard deviation, read-out: Serum Triglyceride, Day 16 (percent control)

CC(=O)n1[nH]c(=O)n(-c2ccccc2)c1=O [A, 4-phenyl-1-methylcarbonyl-1,2,4-triazolidine-3,5-dione]
HDL cholesterol, Percent of Control [1]: 441% of Control | LDL cholesterol, Percent of Control [1]: 74% of Control | VLDL cholesterol, Percent of Control [1]: 44% of Control | Serum Cholesterol, Day 7, Percent of Control [2]: 89% of Control | Serum Triglyceride, Day 7, Percent of Control [2]: 62% of Control | Serum Cholesterol, Day 14, Percent of Control [2]: 69% of Control | Serum Triglyceride, Day 14, Percent of Control [2]: 48% of Control | Serum Cholesterol, Percent of Control, hyperlipidemic mice [3]: 41% of Control | Serum Triglyceride, Percent of Control, hyperlipidemic mice [3]: 40% of Control

CCOC(=O)c1nc(=O)n(-c2ccccc2)c(=O)[nH]1 [Compound N, 3-phenyl-6-ethoxycarbonyl-1,3,5-triazine-2,4(1 --H,3 --H)-dione]
HDL cholesterol, Percent of Control [1]: 409% of Control | LDL cholesterol, Percent of Control [1]: 87% of Control | Serum Cholesterol, Day 7, Percent of Control [2]: 71% of Control | Serum Triglyceride, Day 7, Percent of Control [2]: 61% of Control | Serum Cholesterol, Day 14, Percent of Control [2]: 67% of Control | Serum Triglyceride, Day 14, Percent of Control [2]: 53% of Control | Serum Cholesterol, Percent of Control, hyperlipidemic mice [3]: 50% of Control | Serum Triglyceride, Percent of Control, hyperlipidemic mice [3]: 46% of Control | LD50 [4]: > 500 mg/kg

COc1ccc(-n2c(=O)[nH][nH]c2=O)cc1 [F, 4-(4-methoxyphenyl)-1,2,4-triazolidine-3,5-dione]
HDL cholesterol, Percent of Control [1]: 141% of Control | LDL cholesterol, Percent of Control [1]: 78% of Control | VLDL cholesterol, Percent of Control [1]: 59% of Control | Serum Cholesterol, Day 7, Percent of Control [2]: 77% of Control | Serum Triglyceride, Day 7, Percent of Control [2]: 87% of Control | Serum Cholesterol, Day 14, Percent of Control [2]: 66% of Control | Serum Triglyceride, Day 14, Percent of Control [2]: 81% of Control

O=C(Nc1ccccc1)n1[nH]c(=O)n(-c2ccccc2)c1=O [I, 4-phenyl-1-N-phenylcarbamoyl-1,2,4-triazolidine-3,5-dione]
response vs control in vivo at 20 mg/kg/day [5, 7]: 79 ± 7% | response vs control in vivo at 20 mg/kg/day [5, 8]: 74 ± 6% | response vs control in vivo at 20 mg/kg/day [5, 9]: 68 ± 6%

O=c1[nH][nH]c(=O)n1-c1ccc(Cl)cc1 [J, 4-(4-chlorophenyl)-1,2,4-triazolidine-3,5-dione]
HDL cholesterol, Percent of Control [1]: 194% of Control | LDL cholesterol, Percent of Control [1]: 43% of Control | VLDL cholesterol, Percent of Control [1]: 98% of Control | Serum Cholesterol, Day 7, Percent of Control [2]: 59% of Control | Serum Triglyceride, Day 7, Percent of Control [2]: 61% of Control | Serum Cholesterol, Day 14, Percent of Control [2]: 60% of Control | Serum Triglyceride, Day 14, Percent of Control [2]: 52% of Control | Serum Cholesterol, Percent of Control, hyperlipidemic mice [3]: 46% of Control | Serum Triglyceride, Percent of Control, hyperlipidemic mice [3]: 49% of Control

CCOC(=O)C1n2c(=O)n(-c3ccc(Cl)cc3)c(=O)n21 [L, 3-(4-chlorophenyl)-6-ethoxyacarbonyl-1,3,5-triazabicyclo[3.1.0]hexane-2,4-dione]
Serum Cholesterol, Day 9 (percent control) ([5]; Day 9, ± standard deviation): 74 ± 3 percent control | Serum Cholesterol, Day 16 (percent control) ([5]; Day 16, ± standard deviation): 56 ± 5 percent control | Serum Triglyceride, Day 16 (percent control) ([5]; Day 16, ± standard deviation): 66 ± 7 percent control

CCOC(=O)C1n2c(=O)n(-c3ccccc3)c(=O)n21 [M, 3-phenyl-6-ethoxycarbonyl-1,3,5-triazabicyclo[3.1.0]hexane-2,4-dione]
Serum Cholesterol, Day 9 (percent control) ([5]; Day 9, ± standard deviation): 62 ± 6 percent control | Serum Cholesterol, Day 16 (percent control) ([5]; Day 16, ± standard deviation): 57 ± 5 percent control | Serum Triglyceride, Day 16 (percent control) ([5]; Day 16, ± standard deviation): 59 ± 6 percent control | HDL cholesterol, Percent of Control [1]: 340% of Control | LDL cholesterol, Percent of Control [1]: 67% of Control | VLDL cholesterol, Percent of Control [1]: 71% of Control | Serum Cholesterol, Day 7, Percent of Control [2]: 70% of Control | Serum Triglyceride, Day 7, Percent of Control [2]: 36% of Control | Serum Cholesterol, Day 14, Percent of Control [2]: 36% of Control | Serum Triglyceride, Day 14, Percent of Control [2]: 54% of Control | Serum Cholesterol, Percent of Control, hyperlipidemic mice [3]: 46% of Control | Serum Triglyceride, Percent of Control, hyperlipidemic mice [3]: 54% of Control | LD50 value in mice as single injection IP [6]: > 500 mg/kg

CCOC(=O)c1nc(=O)n(-c2ccc(Cl)cc2)c(=O)[nH]1 [O, 3-(4-chlorophenyl)-6-ethoxycarbonyl-1,3,5-triazine-2,4(1H,3 --H)-dione]
HDL cholesterol, Percent of Control [1]: 113% of Control | LDL cholesterol, Percent of Control [1]: 78% of Control | VLDL cholesterol, Percent of Control [1]: 27% of Control | Serum Cholesterol, Day 7, Percent of Control [2]: 84% of Control | Serum Triglyceride, Day 7, Percent of Control [2]: 82% of Control | Serum Cholesterol, Day 14, Percent of Control [2]: 60% of Control | Serum Triglyceride, Day 14, Percent of Control [2]: 77% of Control

CCCCCC(=O)n1c(=O)n(CCCC)c(=O)n1C(=O)CCCCC [T, 4-(4-n-butyl)-1,2 dipentylcarbonyl-1,2,4-triazolidine-3,5-dione]
response vs control in vivo at 20 mg/kg/day [5, 7]: 69% | response vs control in vivo at 20 mg/kg/day [5, 8]: 49% | response vs control in vivo at 20 mg/kg/day [5, 9]: 53%
